According to article PMC8879095, “UHPLC-MS/MS Analysis of Antibiotics Transfer and Concentrations in Porcine Oral Fluid after Intramuscular Application” (Pharmaceuticals, 2022):
Read-outs that look alike come from different tables or passages of the source.

What was measured:
[1] = cited from earlier work
[2] = Antibiotic concentrations in porcine oral fluid after intramuscular application (UHPLC-MS/MS); assay type: in vivo; settings: pigs, i.m.; for distribution to oral fluid: conclusion in words
Protocol: All animals were born in the sow farm (8000 DanBred sows) located in Northern Poland, after crossing ♀(♂Landrace × ♀Yorskshire) × ♂Duroc. Piglets were weaned after 4 weeks of lactation with an average weight of 6 kg and then moved to the weaner stable (23,000 weaners). After the next 7 weeks, animals were transported to the 9000-places fattening farm with an average body weight of 28 kg, where the trial was performed. All farms in the aforementioned three-phase model used weekly batches and an all-in all-out system. Specialist veterinary and production management care were provided in each location.
For the purpose of the study, 240 immunologically castrated boars were divided into 8 groups, 30 animals in each pen. For the control group, 30 pigs were used in separate pens. Their initial body weight was between 40 and 60 kg. Pigs were housed at 20–25 °C. Fatteners were fed ad libitum with antimicrobial-free water and feed provided by feeders throughout the study. Before the experiment, water and feed were checked for antimicrobials, and no antimicrobial treatments were administered to these pigs before. All animals in one pen were treated due to the same health issue using disposable needles and the same drug and dosage. Pens were separated from each other with concrete walls. The drugs and dosage administered to each experimental group with an indication of withdrawal period for tissues are listed in Table 3. The oral fluid samples were collected using three cotton ropes (70 cm length with 1 cm diameter) in each pen suspended separately for 25 min on the front wall of the pen with bottoms at the pigs’ shoulder height, away from water and feed.
The research material was one pooled sample of oral fluid from 10 pigs, in triplicate, per pen. Ropes were removed immediately after collection. The first oral fluid sample was collected 24 h after the first injection. The collection of each subsequent sample took place at the same time (11:30 A.M.) for 35 consecutive days. Additionally, oral fluid samples were collected from pigs not treated with any antibiotics. Oral fluid from each pen was pooled into one 50-mL Falcon plastic tube and centrifuged at 9447× rcf for 15 min. Centrifuged material was transferred to a 15 mL plastic tube and frozen at −20 °C until analysis.
Before the analysis, the oral fluid samples were centrifuged at 9447× rcf. Next, an aliquot (1 mL) of oral fluid was placed into a 2 mL polypropylene centrifuge tube, and the 30 µL of the internal standard at the concentration of 2 µg/mL was added. For the extraction of analysed antibiotics, 600 µL of 0.5% formic acid was added, vortexed for 30 s and centrifuged for 10 min at 9447× rcf. Then, the supernatant was filtered through a […] PVDF filter into an amber glass vial before chromatographic analysis.
The mass spectrometry detection was operated in the positive ESI mode with multiple reaction monitoring (MRM).

[3] = design: method as in PMID 14651045, PMID 14651045; settings: cited from earlier work
[4] = male, (Landrace × Yorkshire) × Duroc crossbred (DanBred sows), pig, intramuscular, oral fluid, time 1 d (24 h after first injection), treatment period, read-out: Avarage Concentrations in oral fluid
[5] = male, (Landrace × Yorkshire) × Duroc crossbred (DanBred sows), pig, intramuscular, oral fluid, treatment period, read-out: Avarage Concentrations in oral fluid
[6] = male, (Landrace × Yorkshire) × Duroc crossbred (DanBred sows), pig, intramuscular, oral fluid, time 4 d, posttreatment, read-out: Avarage Concentrations in oral fluid
[7] = male, (Landrace × Yorkshire) × Duroc crossbred (DanBred sows), pig, intramuscular, oral fluid, posttreatment, read-out: Avarage Concentrations in oral fluid
[8] = oral fluid, time 30 d, posttreatment

| Compound | pKa [1] | concentration at 1 d [2, 4] [ng/mL] | concentration at 2 d [2, 5] [ng/mL] | concentration at 3 d [2, 5] [ng/mL] | concentration at 4 d [2, 6] [ng/mL] | concentration at 5 d [2, 7] [ng/mL] | concentration at 6 d [2, 7] [ng/mL] | concentration at 7 d [2, 7] [ng/mL] | concentration at 8 d [2, 7] [ng/mL] | concentration at 9 d [2, 7] [ng/mL] | concentration at 10 d [2, 7] [ng/mL] | concentration at 11 d [2, 7] [ng/mL] | concentration at 12 d [2, 7] [ng/mL] | concentration at 13 d [2, 7] [ng/mL] | concentration at 14 d [2, 7] [ng/mL] | concentration at 15 d [2, 7] [ng/mL] | concentration at 16 d [2, 7] [ng/mL] | concentration at 17 d [2, 7] [ng/mL] | concentration at 18 d [2, 7] [ng/mL] | concentration at 19 d [2, 7] [ng/mL] | also measured |
| --- | --- | --- | --- | --- | --- | --- | --- | --- | --- | --- | --- | --- | --- | --- | --- | --- | --- | --- | --- | --- | --- |
| C=C[C@]1(C)C[C@@H](OC(=O)CSCCN(CC)CC)[C@]2(C)[C@H](C)CC[C@]3(CCC(=O)[C@H]32)[C@@H](C)[C@@H]1O [TIAM, tiamulin] | 7.6 | 7600 | 2520 ± 355 | 2460 ± 311 | 1560 | 1540 ± 233 | 2960 ± 299 | 2570 ± 254 | 875 ± 156 | 567 ± 111 | 621 ± 124 | 279 ± 66 | 254 ± 69 | 138 ± 43 | 269 ± 71 | 156 ± 41 | 279 ± 68 | 182 ± 49 | 176 ± 52 | 202 ± 45 | concentration at 1 d ([2]; male, (Landrace × Yorkshire) × Duroc crossbred (DanBred sows), pig, intramuscular, oral fluid, first day of medication (abstract), read-out: concentration in oral fluid on the first day of medication): 7600 ng/g; concentration at 20 d [2, 7]: 133 ± 36 ng/mL; concentration at 21 d [2, 7]: 148 ± 32 ng/mL; concentration at 22 d [2, 7]: 220 ± 44 ng/mL; concentration at 23 d [2, 7]: 146 ± 29 ng/mL; concentration at 24 d [2, 7]: 310 ± 55 ng/mL; concentration at 25 d [2, 7]: 193 ± 33 ng/mL; concentration at 26 d [2, 7]: 66.4 ± 12 ng/mL; concentration at 27 d [2, 7]: 54.3 ± 14 ng/mL; concentration at 28 d ([2]; male, (Landrace × Yorkshire) × Duroc crossbred (DanBred sows), pig, intramuscular, oral fluid, time 28 d, posttreatment, read-out: Avarage Concentrations in oral fluid): 35.8 ± 17 ng/mL; concentration at 29 d ([2]; male, (Landrace × Yorkshire) × Duroc crossbred (DanBred sows), pig, intramuscular, oral fluid, time 29 d, posttreatment, read-out: Avarage Concentrations in oral fluid): 40.6 ± 21 ng/mL; concentration at 30 d ([2]; male, (Landrace × Yorkshire) × Duroc crossbred (DanBred sows), pig, intramuscular, oral fluid, time 30 d, posttreatment, read-out: Avarage Concentrations in oral fluid): 46.9 ng/mL; Avarage Concentrations in oral fluid ([2]; oral fluid, time 1 d (24 h after first injection), treatment period): 7600 ± 1055 µg/L; Avarage Concentrations in oral fluid ([2]; oral fluid, time 4 d, posttreatment): 1560 ± 225 µg/L; Avarage Concentrations in oral fluid [2, 8]: 46.9 ± 19 µg/L; distribution to oral fluid [2]: high distribution |
| CC[C@H]1OC(=O)C[C@@H](O)[C@H](C)[C@@H](O[C@@H]2O[C@H](C)[C@@H](O[C@H]3C[C@@](C)(O)[C@@H](O)[C@H](C)O3)[C@H](N(C)C)[C@H]2O)[C@@H](CC=O)C[C@@H](C)C(=O)/C=C/C(C)=C/[C@@H]1CO[C@@H]1O[C@H](C)[C@@H](O)[C@@H](OC)[C@H]1OC [TYL, tylosin] | 7.1 | 396 ± 68 | 958 ± 166 | 832 ± 142 | 654 ± 111 | 538 ± 96 | 475 ± 89 | 175 ± 54 | 118 ± 41 | 158 ± 62 | 49.3 ± 13 | 54.4 ± 16 | 140 ± 36 | 32.3 ± 11 | 30.6 ± 8.4 | 19.2 ± 5.2 | 52.8 ± 33 | 31.9 ± 10 | 13.9 ± 3.6 | 16.1 ± 4.6 | concentration at 1 d ([2]; male, (Landrace × Yorkshire) × Duroc crossbred (DanBred sows), pig, intramuscular, 5 mg/kg, oral fluid, time 1 d (24 h after first injection), treatment period, read-out: Avarage Concentrations in oral fluid): 396 ng/mL; concentration at 20 d [2, 7]: 25.4 ± 7.7 ng/mL; concentration at 21 d [2, 7]: 9.2 ± 2.1 ng/mL; concentration at 22 d [2, 7]: 5.5 ± 1.1 ng/mL; concentration at 23 d [2, 7]: 5.4 ± 0.8 ng/mL; concentration at 24 d [2, 7]: 6.6 ± 0.9 ng/mL; concentration at 25 d [2, 7]: 5 ± 1.3 ng/mL; concentration at 26 d [2, 7]: 3 ± 0.5 ng/mL; concentration at 27 d [2, 7]: 6.8 ± 1.7 ng/mL; concentration in oral fluid at withdrawal period ([2]; oral fluid, at the end of the withdrawal period for tissues of each drug (Table 3)): 6.6 ng/mL; day of peak concentration in oral fluid ([2]; oral fluid, day of drug administration): second day; time for which the analyte was present / quantified in oral fluid ([2]; oral fluid, sampling for 30 days): 27 days; Avarage Concentrations in oral fluid ([2]; oral fluid, time 28 d, posttreatment): <LOQ; Avarage Concentrations in oral fluid ([2]; oral fluid, time 29 d, posttreatment): <LOQ; Avarage Concentrations in oral fluid [2, 8]: <LOQ; distribution to oral fluid [2]: high distribution; binding degree to plasma proteins [3]: < 50% |
